Measurements taken from patent US11596639B2, “Substituted indole Mcl-1 inhibitors” (Vanderbilt University, priority 2016, dated 2023).

Legend:
Mcl-1 = Mcl-1 (Homo sapiens (Human), UniProt Q07820); experiment: Fluorescence polarization anisotropy (FPA) competition assay, FITC-Bak or FITC-Bim BH3 peptide; type: binding; details: read-out: Ki for Inhibition of Mcl-1 by FPA assay
[1] = tested on: H929 human cancer cell lines; experiment: Cellular viability / proliferation (Cell TiterGlo, 72 h); type: cell-based; details: Homo sapiens, NCI-H929, 72 h, read-out: GI50 on cellular proliferation of H929 human cancer cell lines, H929 cells, 72 h, Cell TiterGlo, 10% FBS
Summary of the method: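 1,000 cells/well, 10% FBS medium; compound added at 24 h, 2-fold dilutions from 50 μM top, DMSO <1% final. 72 h exposure, CellTiterGlo 30 min RT dark, luminescence read. IC50 by 4-parameter fit.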

Sequence of Mcl-1 (Q07820 172-327): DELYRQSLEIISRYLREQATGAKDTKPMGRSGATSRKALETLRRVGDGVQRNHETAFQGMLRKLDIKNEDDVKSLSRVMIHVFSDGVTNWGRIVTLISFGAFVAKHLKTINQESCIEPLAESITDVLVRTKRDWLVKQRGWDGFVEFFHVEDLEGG

Structure (SMILES) | Ki (Mcl-1) [µM] | GI50 [1] [µM]
Cc1cc(OCCCc2c3n(c4c(-c5c(C)nn(C)c5C)c(Cl)ccc24)[C@H](C)CN(c2ccc4c(c2)c(C(=O)O)cn4C)C3=O)cc(C)c1Cl [Example 171, (R)-5-(7-Chloro-10-(3-(4-chloro-3,5-dimethylphenoxy)propyl)-4-methyl-1-oxo-6-(1,3,5-trimethyl-1H-pyrazol-4-yl)-3,4-dihydropyrazino[1,2-a]indol-2(1H)-yl)-1-methyl-1H-indole-3-carboxylic acid] | < 0.001 | 1.5
COc1cc(N2C[C@@H](C)n3c(c(CCCOc4cc(C)c(Cl)c(C)c4)c4ccc(Cl)c(-c5c(C)nn(C)c5C)c43)C2=O)c2c(c1)c(C(=O)O)cn2C [Example 436, (R)-7-(7-Chloro-10-(3-(4-chloro-3,5-dimethylphenoxy)propyl)-4-methyl-1-oxo-6-(1,3,5-trimethyl-1H-pyrazol-4-yl)-3,4-dihydropyrazino[1,2-a]indol-2(1H)-yl)-5-methoxy-1-methyl-1H-indole-3-carboxylic acid] | 0.0021 | 0.51
Cc1cc(OCCCc2c3n(c4c(-c5c(C)nn(C)c5C)c(Cl)ccc24)[C@H](C)CN(c2cccc4cc5n(c24)CCN(C)C5=O)C3=O)cc(C)c1Cl [Example 226, (4R)-7-chloro-10-[3-(4-chloro-3,5-dimethyl-phenoxy)propyl]-4-methyl-2-(2-methyl-1-oxo-3,4-dihydropyrazino[1,2-a]indol-6-yl)-6-(1,3,5-trimethylpyrazol-4-yl)-3,4-dihydropyrazino[1,2-a]indol-1-one] | 0.0049 | 2.6
Cc1cc(OCCCc2c3n(c4c(-c5c(C)ncnc5C)c(Cl)ccc24)CCCNC3=O)cc(C)c1Cl [Example 120, 8-Chloro-11-(3-(4-chloro-3,5-dimethylphenoxy)propyl)-7-(4,6-dimethylpyrimidin-5-yl)-2,3,4,5-tetrahydro-1H-[1,4]diazepino[1,2-a]indol-1-one] | 0.039 | 12
Cc1cc(OCCCc2c3n(c4c(-c5c(C)nn(C)c5C)c(Cl)ccc24)[C@H](C)CN(c2ccc4cc(C(=O)O)n(C)c4c2)C3=O)cc(C)c1Cl [Example 110, (R)-6-(7-Chloro-10-(3-(4-chloro-3,5-dimethylphenoxy)propyl)-4-methyl-1-oxo-6-(1,3,5-trimethyl-1H-pyrazol-4-yl)-3,4-dihydropyrazino[1,2-a]indol-2(1H)-yl)-1-methyl-1H-indole-2-carboxylic acid] | < 0.001 | 0.79
Cc1cc(OCCCc2c3n(c4c(-c5c(C)nc(CN6CCN(C)CC6)nc5C)c(Cl)ccc24)[C@H](C)CN(c2cn(C)c4ccc(C(=O)O)cc24)C3=O)cc(C)c1Cl [Example 396, (R)-3-(7-Chloro-10-(3-(4-chloro-3,5-dimethylphenoxy)propyl)-6-(4,6-dimethyl-2-((4-methylpiperazin-1-yl)methyl)pyrimidin-5-yl)-4-methyl-1-oxo-3,4-dihydropyrazino[1,2-a]indol-2(1H)-yl)-1-methyl-1H-indole-5-carboxylic acid] | 0.0018 | < 0.2
Cc1cc(N2C[C@@H](C)n3c(c(CCCOc4cc(C)c(Cl)c(C)c4)c4ccc(Cl)c(-c5c(C)n[nH]c5C)c43)C2=O)c2c(c1)cc(C(=O)O)n2C [Example 400, (R)-7-(7-chloro-10-(3-(4-chloro-3,5-dimethylphenoxy)propyl)-6-(3,5-dimethyl-1H-pyrazol-4-yl)-4-methyl-1-oxo-3,4-dihydropyrazino[1,2-a]indol-2(1H)-yl)-1,5-dimethyl-1H-indole-2-carboxylic acid] | 0.0014 | 0.43
Cc1cc(OCCCc2c3n(c4c(-c5c(C)nc(CN(C)C)nc5C)c(Cl)ccc24)[C@H](C)CN(c2cn(C)c4ccc(C(=O)O)cc24)C3=O)cc(C)c1Cl [Example 451, (R)-3-(7-Chloro-10-(3-(4-chloro-3,5-dimethylphenoxy)propyl)-6-(2-((dimethylamino)methyl)-4,6-dimethylpyrimidin-5-yl)-4-methyl-1-oxo-3,4-dihydropyrazino[1,2-a]indol-2(1H)-yl)-1-methyl-1H-indole-5-carboxylic acid] | < 0.001 | < 0.2
Cc1cc(OCCCc2c3n(c4c(-c5c(C)nn(C)c5C)c(Cl)ccc24)[C@H](C)CN(c2cn(C)c4cc(C(=N)NO)ccc24)C3=O)cc(C)c1Cl [Example 335, (R)-3-(7-Chloro-10-(3-(4-chloro-3,5-dimethylphenoxy)propyl)-4-methyl-1-oxo-6-(1,3,5-trimethyl-1H-pyrazol-4-yl)-3,4-dihydropyrazino[1,2-a]indol-2(1H)-yl)-N-hydroxy-1-methyl-1H-indole-6-carboximidamide] | 0.0045 | 0.91
Cc1cc(N2C[C@@H](C)n3c(c(CCCOc4cc(C)c(Cl)c(C)c4)c4ccc(Cl)c(-c5c(C)ncnc5C)c43)C2=O)c2c(c1)cc(C(=O)O)n2C [Example 272, 7-[(4R)-7-chloro-10-[3-(4-chloro-3,5-dimethyl-phenoxy)propyl]-6-(4,6-dimethylpyrimidin-5-yl)-4-methyl-1-oxo-3,4-dihydropyrazino[1,2-a]indol-2-yl]-1,5-dimethyl-indole-2-carboxylic acid] | < 0.001 | 0.21
Cc1cc(OCCCc2c3n(c4c(-c5c(C)nn(C)c5C)c(Cl)ccc24)[C@H](C)CN(c2cccc4c2c(C(=O)O)nn4C)C3=O)cc(C)c1Cl [Example 125, 4-[(4R)-7-chloro-10-[3-(4-chloro-3,5-dimethyl-phenoxy)propyl]-4-methyl-1-oxo-6-(1,3,5-trimethylpyrazol-4-yl)-3,4-dihydropyrazino[1,2-a]indol-2-yl]-1-methyl-indazole-3-carboxylic acid] | < 0.001 | 7.6
Cc1cc(OCCCc2c3n(c4c(-c5c(C)nn(C)c5C)c(Cl)ccc24)[C@H](C)CN(c2cc(Cl)cc4cc(C(=O)O)oc24)C3=O)cc(C)c1Cl [Example 232, (R)-5Chloro-7-(7-chloro-10-(3-(4-chloro-3,5-dimethylphenoxy)propyl)-4-methyl-1-oxo-6-(1,3,5-trimethyl-1H-pyrazol-4-yl)-3,4-dihydropyrazino[1,2-a]indol-2(1H)-yl)benzofuran-2-carboxylic acid] | < 0.001 | 4
Cc1cc(OCCCc2c3n(c4c(-c5c(C)nn(C)c5C)c(Cl)ccc24)CCCN(c2cc(C(=O)O)c4cnn(CCN5CCOCC5)c4c2)C3=O)cc(C)c1Cl [Example 14, 6-[8-Chloro-11-[3-(4-chloro-3,5-dimethyl-phenoxy)propyl]-1-oxo-7-(1,3,5-trimethylpyrazol-4-yl)-4,5-dihydro-3H-[1,4]diazepino[1,2-a]indol-2-yl]-1-(2-morpholinoethyl)indazole-4-carboxylic acid] | < 0.001 | 3.2
Cc1cc(OCCCc2c3n(c4c(-c5c(C)nn(C)c5C)c(Cl)ccc24)[C@H](C)[C@@H](C)N(c2ccc(C(=O)O)cc2)C3=O)cc(C)c1Cl [Example 142, 4-((3R,4R)-7-chloro-10-(3-(4-chloro-3,5-dimethylphenoxy)propyl)-3,4-dimethyl-1-oxo-6-(1,3,5-trimethyl-1H-pyrazol-4-yl)-3,4-dihydropyrazino[1,2-a]indol-2(1H)-yl)benzoic acid] | 0.0038 | 7.4
Cc1cc(OCCCc2c3n(c4c(-c5c(C)nn(C)c5C)c(Cl)ccc24)[C@H](C)CN(c2cn(C)c4ccc(S(=O)(=O)N5CCNCC5)cc24)C3=O)cc(C)c1Cl [Example 265, (R)-7-chloro-10-(3-(4-chloro-3,5-dimethylphenoxy)propyl)-4-methyl-2-(1-methyl-5-(piperazin-1-ylsulfonyl)-1H-indol-3-yl)-6-(1,3,5-trimethyl-1H-pyrazol-4-yl)-3,4-dihydropyrazino[1,2-a]indol-1(2H)-one] | 0.0082 | 1.5
Cc1ccnc(Cn2c(C(=O)O)cc3cccc(N4C[C@@H](C)n5c(c(CCCOc6cc(C)c(Cl)c(C)c6)c6ccc(Cl)c(-c7c(C)nn(C)c7C)c65)C4=O)c32)c1 [Example 371, (R)-7-(7-Chloro-10-(3-(4-chloro-3,5-dimethylphenoxy)propyl)-4-methyl-1-oxo-6-(1,3,5-trimethyl-1H-pyrazol-4-yl)-3,4-dihydropyrazino[1,2-a]indol-2(1H)-yl)-1-((4-methylpyridin-2-yl)methyl)-1H-indole-2-carboxylic acid] | < 0.001 | 0.3
Cc1cc(OCCCc2c3n(c4c(-c5c(C)nn(C)c5C)c(Cl)ccc24)[C@H](C)CN(c2cn(CCN4CCOCC4)c4cc(C(N)=O)ccc24)C3=O)cc(C)c1Cl [Example 402, (R)-3-(7-Chloro-10-(3-(4-chloro-3,5-dimethylphenoxy)propyl)-4-methyl-1-oxo-6-(1,3,5-trimethyl-1H-pyrazol-4-yl)-3,4-dihydropyrazino[1,2-a]indol-2(1H)-yl)-1-(2-morpholinoethyl)-1H-indole-6-carboxamide] | 0.0049 | 1.1
Cc1cc(OCCCc2c3n(c4c(-c5c(C)ncnc5C)c(Cl)ccc24)[C@H](C)CN(c2cccc4c2cc(C(=O)O)n4C)C3=O)cc(C)c1Cl [Example 210, 4-[(4R)-7-chloro-10-[3-(4-chloro-3,5-dimethyl-phenoxy)propyl]-6-(4,6-dimethylpyrimidin-5-yl)-4-methyl-1-oxo-3,4-dihydropyrazino[1,2-a]indol-2-yl]-1-methyl-indole-2-carboxylic acid] | 0.0013 | 1.5
Cc1cc(OCCCc2c3n(c4c(-c5c(C)ncnc5C)c(Cl)ccc24)CCCN(c2cccc4c(C(=O)O)cccc24)C3=O)cc(C)c1Cl [Example 151, 5-[8-Chloro-11-[3-(4-chloro-3,5-dimethyl-phenoxy)propyl]-7-(4,6-dimethylpyrimidin-5-yl)-1-oxo-4,5-dihydro-3H-[1,4]diazepino[1,2-a]indol-2-yl]naphthalene-1-carboxylic acid] | < 0.001 | 2.1
